How the values were obtained:
Staphylococcus aureus [1] = assay: Inhibition of biofilm formation in methicillin-resistant Staphylococcus aureus ATCC 43300 at 100 uM incubated for 24 hrs by crystal violet staining based microtiter plate method; assay type: functional
Staphylococcus aureus [2] = assay: Inhibition of biofilm formation in methicillin-resistant Staphylococcus aureus ATCC 43300 incubated for 24 hrs by crystal violet staining based microtiter plate method; assay type: functional, organism-based; conditions: ATCC 43300, 24 h
Acinetobacter baumannii = assay: Inhibition of biofilm formation in Acinetobacter baumannii at 100 uM incubated for 24 hrs by crystal violet staining based microtiter plate method; assay type: functional
CCD-18Co [3] = assay: Cytotoxicity against human CCD-18Co cells assessed as reduction in cell viability at 50 uM measured after 1 days by MTT assay relative to control; assay type: cell-based; conditions: 24 h, time 1 day
CCD-18Co [4] = assay: Cytotoxicity against human CCD-18Co cells assessed as reduction in cell viability at 12.5 uM measured after 1 days by MTT assay relative to control; assay type: cell-based; conditions: 24 h, time 1 day
CCD-18Co [5] = assay: Cytotoxicity against human CCD-18Co cells assessed as reduction in cell viability at 25 uM measured after 1 days by MTT assay relative to control; assay type: cell-based; conditions: 24 h, time 1 day

Row | SMILES | inhibition at 100 µM (Staphylococcus aureus [1]) [%] | IC50 (Staphylococcus aureus [2]) [µM] | inhibition at 100 µM (Acinetobacter baumannii) [%] | Activity (CCD-18Co [3]) | Activity (CCD-18Co [4]) | Activity (CCD-18Co [5])
1 | CSc1ccc(-c2cc(-c3nc4ccccc4c(=O)[nH]3)nc(N)n2)cc1 | > 50 | 22.4 | < 25 |  |  | 
2 | Nc1nc(-c2nc3ccccc3c(=O)[nH]2)cc(-c2cccc3ccccc23)n1 |  |  | < 25 |  |  | 
3 | Nc1nc(-c2cccc(OCc3ccccc3)c2)cc(-c2nc3ccccc3c(=O)[nH]2)n1 |  |  | < 25 |  |  | 
4 | COc1cccc(-c2cc(-c3nc4ccccc4c(=O)[nH]3)nc(N)n2)c1 | > 50 | 84.8 | < 25 |  |  | 
5 | Nc1nc(-c2cccc(Br)c2)cc(-c2nc3ccccc3c(=O)[nH]2)n1 | > 50 | 20.7 | < 25 | Toxic | Toxic | 
6 | Nc1nc(-c2ccccc2)cc(-c2nc3ccccc3c(=O)[nH]2)n1 | > 50 | 34.4 | < 25 |  |  | 
7 | COc1ccc(-c2cc(-c3nc4ccccc4c(=O)[nH]3)nc(N)n2)c(OC)c1 | > 50 | 38.4 | < 25 |  |  | 
8 | Nc1nc(-c2nc3ccccc3c(=O)[nH]2)cc(-c2ccc(Cl)cc2Cl)n1 | > 50 | 42.7 | < 25 |  |  | 
9 | Nc1nc(-c2nc3ccccc3c(=O)[nH]2)cc(-c2ccco2)n1 | > 50 | 56.9 | < 25 |  |  | 
10 | COc1cc(OC)cc(-c2cc(-c3nc4ccccc4c(=O)[nH]3)nc(N)n2)c1 | > 50 | 50.5 | < 25 |  |  | 
11 | Nc1nc(-c2ccc(C(F)(F)F)cc2)cc(-c2nc3ccccc3c(=O)[nH]2)n1 | > 50 | 86.5 | < 25 |  |  | 
12 | COc1cc(OC)c(-c2cc(-c3nc4ccccc4c(=O)[nH]3)nc(N)n2)c(OC)c1 | > 50 | 21.2 | < 25 | Non-Toxic | Non-Toxic | Non-Toxic
13 | COc1ccc(-c2cc(-c3nc4ccccc4c(=O)[nH]3)nc(N)n2)cc1OC |  |  | < 25 |  |  | 
14 | Nc1nc(-c2nc3ccccc3c(=O)[nH]2)cc(-c2cccs2)n1 | < 50 | 71 | < 25 |  |  | 
15 | Nc1nc(-c2ccc(F)cc2)cc(-c2nc3ccccc3c(=O)[nH]2)n1 | < 50 |  | < 25 |  |  | 
16 | Nc1nc(-c2nc3ccccc3c(=O)[nH]2)cc(-c2ccccc2Cl)n1 | > 50 | 56.2 | < 25 |  |  | 
17 | Nc1nc(-c2ccncc2)cc(-c2nc3ccccc3c(=O)[nH]2)n1 | < 50 |  | < 25 |  |  | 
18 | COc1cc(-c2cc(-c3nc4ccccc4c(=O)[nH]3)nc(N)n2)cc(OC)c1OC |  |  | < 25 |  |  | 
19 | Nc1nc(-c2ccc(Cl)cc2)cc(-c2nc3ccccc3c(=O)[nH]2)n1 | < 50 |  | < 25 |  |  | 
20 | Nc1nc(-c2ccc(OCc3ccccc3)cc2)cc(-c2nc3ccccc3c(=O)[nH]2)n1 | > 50 | 37.3 | < 25 |  |  | 
21 | Nc1nc(-c2ccc(Br)cc2)cc(-c2nc3ccccc3c(=O)[nH]2)n1 | > 50 | 47.3 | < 25 |  |  | 
22 | Cc1ccc(-c2cc(-c3nc4ccccc4c(=O)[nH]3)nc(N)n2)cc1 |  |  | < 25 |  |  | 
